In patent US6833376B2, “5-aminoalkyl and 5-aminocarbonyl substituted indoles” (H. Lundbeck A/S, priority 1999, dated 2004):
pIC50: −log10 of the molar value. Like-named read-outs stand apart in the source and are kept apart here.

Legend:
[1] = biological target: T1, serotonin S2 (5HT2A) receptors (Rattus norvegicus, UniProt P14842); assay: Inhibition of [3H]-ketanserin binding to serotonin S2 (5HT2A) receptors in rat cortex in vitro
T1 construct: rats (125-250 g) are sacrificed and cortical tissue is dissected and weighed; from tissue; host or cells: rat cortex membranes (male Wistar rats)
Experimental: INHIBITION OF [^3H]-KETANSERIN BINDING TO SEROTONIN S2 (5HT2A) RECEPTORS IN RAT CORTEX IN VITRO
By this method, the inhibition by drugs of the binding of [^3H]-ketanserin (0.5 nM) to serotonin S2 (5-HT2) receptors in membranes from rat cortex is determined in vitro.
The tissue is homogenized (Ultra Turrax, 10 sec) in 10 mL of ice cold 50 mM tris buffer pH 7.7 (at 25° C.). The centrifige glassware used in this step has been rinsed by sonication for 10 min in ethanol. The homogenate is centrifuged twice at 20,000 g for 10 min. at 4° C., with rehomogenization of the pellet in 10 mnL ice-cold buffer. The final pellet is homogenized in 250 vol (w/v) ice-cold buffer.
Incubation tubes (96 deep well titer plate) kept on ice receive 50 mL of [^3H]-ketanserin (final concentration 0.5 nM).
The binding experiment is initiated by addition of […] of tissue suspension (final tissue content corresponds to 4 mg original tissue) and by placing the 96 deep well titer plate in a 37° C. water bath. All tests are made in triplicates.
After incubation for 30 min, the samples are filtered on a Brandel harvester under vacuum (18 inch Hg) through printed filter mat B (13 mm). Titerplate and filter are washed 2×10 sec. flow 50L/h with ice cold buffer.
The printed filter mat with purred labelled tissue are dried for 1 h at 110° C. and hereafter placed in a sample bag with Meltilex B/HS 14.5 g and melted together on the T-tray heat seal.
Specific binding is obtained by subtracting the nonspecific binding in the presence of 1 mM mianserin.
(§1) For determination of the inhibition of binding, five concentrations of drugs covering 3 decades are used.
[^3H]-ketanserin=(ethylene-^3H)-ketanserin hydrochloride from New England Nuclear, specific activity […].

dopamine D2 receptors = biological target: T2, dopamine D2 receptors (Rattus norvegicus, UniProt P61169); assay: Inhibition of [3H]-spiperone binding to dopamine D2 receptors in rat corpus striatum in vitro
T2 construct: rats (125-250 g) are sacrificed and striatal tissue is dissected and weighed; from tissue; host or cells: rat corpus striatum membranes (male Wistar rats)
Experimental: Inhibition of [^3H]-Spiperone Binding to Dopamnine D2 Receptors in Rat Corpus Striatum in vitro
By this method, the inhibition by drugs of the binding of [^3H]-spiperone (=^3H]-spiro-peridol) (0.5 nM) to dopamine D-2 receptors in membranes from rat corpus striatum is determined in vitro. […] PharmacoL. ToxicoL. […] This is a test for dopamnine D2 receptor binding affinity in vitro.
The tissue is homogenized (Ultra Turrax, 10 sec.) in 10 mL of ice-cold 50 mM K-phosphate buffer pH 7.4 (at 25° C.). The homogenate is centrifuiged twice at 20,000 g for 10 min at 4° C. with rehomogenization of the pellet in 10 mL ice-old buffer. The final pellet is homogenized in 1300 vol (w/v) ice-cold buffer.
The binding experiment is initiated by addition of 100 μl of [^3H]-spiperone (final concentration 0.5 nM) and by placing the tubes in a 37° C. water bath. […] The tubes are rinsed with 5 mL ice-old buffer which are then poured on the filters. Thereafter, the filters are washed with 2×5 mL of buffer. The filters are placed in counting vials and 4 mL of appropriate scintillation fluid (e.g. Picofluor™15) are added. After shaking for 1 h and storage for 2 hrs in the dark, the content of radioactivity is determined by liquid scintillation counting. Specific binding is obtained by subtracting the nonspecific binding in the presence of 10 μM of 6,7-ADTN.
For determination of the inhibition of binding, five concentrations of drugs covering 3 orders of magnitude are used.
[^3H]-Spiperone=[phenyl-4-^3H]-spiperone from Amersham International plc. England, specific activity 15-25 Ci/mmol.

α1-adrenoceptors = assay: Inhibition of [3H]-prazosin binding to α1-adrenoceptors in rat brain in vitro; details: [3H]-prazosin 0.25 nM, membranes from rat brain
Experimental: Method and results in Hyttel & Larsen, J. Neurochem.
The tissue is homogenized (Ultra Turrax, 10 se) in 10 mL of ice cold 50 mM tris buffer pH 7.7 (at 25° C.). The homogenate is centiflged twice at 20,000 g for 10 min at 4° C. with rehomogenization of the pellet in 10 ml ice-cold buffer. The final pellet is homogenized in 250 vol (w/v) ice-cold buffer.
The binding experiment is initiated by addition of […] of tissue suspension (final tissue content corresponds to 3 mg original tissue) and by placing the 96 deep well titer plate in a 25° C. water bath. AU tests are made in triplicates. After incubation for 20 min, the samples are filtered on a Brandel harvester under vacuum (18 inch. Hg) through printed filtermat B (13 mm). Titerplates and filter are washed 1×10 sec flow 50 L/h with ice cold buffer.
The filter mat is dried for 1 h at 110° C. and then placed in a sample bag with Meltilex B/HS (14.5 g) and melted together on the T-Tray heat sealer.
as §1

[2] = [3H]-ketanserin 0.5 nM, membranes from rat cortex, read-out: IC50 values 5-HT2A
[3] = [3H]-spiperone 0.5 nM, membranes from rat corpus striatum, read-out: IC50 values D2

T2 sequence (P61169 whole entry): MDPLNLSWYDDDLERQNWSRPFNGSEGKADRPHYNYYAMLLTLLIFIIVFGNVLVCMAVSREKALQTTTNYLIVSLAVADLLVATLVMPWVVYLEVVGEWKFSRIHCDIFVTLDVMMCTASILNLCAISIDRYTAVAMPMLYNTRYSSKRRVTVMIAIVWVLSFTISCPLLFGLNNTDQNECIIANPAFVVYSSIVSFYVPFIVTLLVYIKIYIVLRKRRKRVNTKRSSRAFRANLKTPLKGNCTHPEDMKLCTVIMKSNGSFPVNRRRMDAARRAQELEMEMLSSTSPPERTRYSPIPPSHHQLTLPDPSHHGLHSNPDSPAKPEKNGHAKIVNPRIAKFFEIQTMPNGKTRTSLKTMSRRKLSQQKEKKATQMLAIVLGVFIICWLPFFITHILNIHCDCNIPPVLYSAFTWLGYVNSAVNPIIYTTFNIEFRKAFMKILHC
T1 sequence (P14842 whole entry): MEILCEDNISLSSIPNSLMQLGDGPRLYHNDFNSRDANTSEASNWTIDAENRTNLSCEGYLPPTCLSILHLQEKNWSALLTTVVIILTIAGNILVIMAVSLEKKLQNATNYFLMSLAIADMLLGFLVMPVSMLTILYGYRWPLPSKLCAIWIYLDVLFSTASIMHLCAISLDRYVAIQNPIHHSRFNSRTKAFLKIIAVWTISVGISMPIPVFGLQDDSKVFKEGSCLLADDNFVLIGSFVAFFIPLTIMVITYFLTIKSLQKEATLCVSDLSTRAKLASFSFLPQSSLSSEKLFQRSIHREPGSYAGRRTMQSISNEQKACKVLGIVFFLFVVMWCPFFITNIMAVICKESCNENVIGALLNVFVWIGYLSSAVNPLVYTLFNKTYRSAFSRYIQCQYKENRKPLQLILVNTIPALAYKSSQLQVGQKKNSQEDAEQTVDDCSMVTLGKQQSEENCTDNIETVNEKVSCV

Structure (SMILES) | pIC50 [1, 2] | pIC50 (dopamine D2 receptors; [3]) | pIC50 (α1-adrenoceptors) | melting point | pIC50 [1] | pIC50 (dopamine D2 receptors)
CN(C)C(=O)c1ccc2c(c1)c(C1CCN(CCN3CCNC3=O)CC1)cn2-c1ccc(F)cc1 [Compound 7b, N,N-Dimethyl-1-(4-fluorophenyl)-3-[1-[2-(2-imidazolidinon-1-yl)ethyl]4-piperidinyl]-1H-indole-5-carboxamide] | 7.74 | 6.77 | 8.27 | 172 to 176 °C |  | 
CN(C)Cc1ccc2c(c1)c(C1CCN(CCN3CCNC3=O)CC1)cn2-c1ccc(F)cc1 [Compound 7c, 1-[2-[4-[5-Dimethylaminomethyl-1-(4-fluorophenyl)-1H-indol-3-yl]-1-piperidinyl]ethyl]-2-imidazolidinon] | 7.30 | 6.74 | 8.89 | 166 to 174 °C |  | 
CN(C)Cc1ccc2c(c1)c(C1=CCN(CCN3CCNC3=O)CC1)cn2-c1ccc(F)cc1 [Compound 7d, 1-[2-[4-[5-Dimethylaminomethyl-1-(4-fluorophenyl)-1H-indol-3-yl]-1,2,3,6-tetrahydropyridin-1-yl]ethyl]-2-imidazolidinon] |  |  | 9.28 | 146 to 148 °C | 7.10 | 7.46
COc1cc2nc(N3CCN(C(=O)c4ccco4)CC3)nc(N)c2cc1OC [Prazosin, reference compound] |  |  | 9.44 |  |  | 
O=C1NCCN1CCN1CCC(c2cn(-c3ccc(F)cc3)c3ccc(Cl)cc23)CC1 [Sertindole, sertindole, reference compound] |  |  | 8.47 |  |  | 
